The target in assay [1] is recombinant human MEK 1 (MAPKK) and recombinant human ERK2 (MAPK). Kind of assay: Mitogen Activated Protein Kinase (MAPK) assay, two component coupled MEK 1 / ERK2.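 Note: MEK 1-activated ERK2 phosphorylates MBP or Myc peptide with 33P-ATP, filter capture and scintillation counting, inhibitor preincubated with ERK2 30 min at 0 °C, inhibition relative to uninhibited control.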 Format: biochemical. As to conditions: separate entries for the same compound = evaluated more than one time.
The target of assay [2] is Epithelial Cell Kinase (ECK) (Homo sapiens, UniProt P29317). Kind of assay: biochemical.
Description: In this standard pharmacological test procedure, a biotinylated peptide substrate is first immobilized on neutravidin-coated microtiter plates. The test drug, the Epithelial Cell Kinase (ECK), Mg^++, sodium vanadate (a protein tyrosine phosphatase inhibitor), and an appropriate buffer to maintain pH (7.2) are then added to the immobilized substrate-containing microtiter wells. ATP is then added to initiate phosphorylation. After incubation, the assay plates are washed with a suitable buffer leaving behind phosphorylated peptide which is exposed to horse radish peroxidase (HRP)-conjugated anti-phosphotyrosine monoclonal antibody. The antibody-treated plates are washed again and the HRP activity in individual wells is quantified as a reflection of degree of substrate phosphorylation.
Assay [3] concerns the target T1, Kinase insert Domain containing Receptor (KDR: the catalytic domain of the VEGF receptor) (Homo sapiens, UniProt P35968).
T1 construct: KDR: the catalytic domain of the VEGF receptor
The assay is described as follows: Inhibition of Kinase insert Domain containing Receptor (KDR).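 Note: KDR phosphorylating a Glu:Tyr 4:1 copolymer with P32- or P33-labelled ATP, Mg++ and vanadate, read as acid-insoluble radiolabel, compared with compound-free reaction.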 In kind it is biochemical. As to conditions: pH 7.2; radioactive format; read-out: KDR IC50 (converted).

For orientation: IC50 means the point on the concentration scale where inhibition reaches its midpoint.

T1 sequence (P35968 834-1162 limits assumed): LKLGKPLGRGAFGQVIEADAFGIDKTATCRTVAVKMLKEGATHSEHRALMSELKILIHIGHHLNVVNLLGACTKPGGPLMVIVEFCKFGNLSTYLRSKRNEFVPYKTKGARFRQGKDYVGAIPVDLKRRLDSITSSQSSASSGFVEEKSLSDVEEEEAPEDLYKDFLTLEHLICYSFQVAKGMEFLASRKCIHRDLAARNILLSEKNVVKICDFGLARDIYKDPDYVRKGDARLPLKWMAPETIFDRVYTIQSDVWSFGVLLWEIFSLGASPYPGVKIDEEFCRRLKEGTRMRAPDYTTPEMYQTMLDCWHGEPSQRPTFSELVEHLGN
Epithelial Cell Kinase (ECK), sequence (P29317 24-976, species assumed): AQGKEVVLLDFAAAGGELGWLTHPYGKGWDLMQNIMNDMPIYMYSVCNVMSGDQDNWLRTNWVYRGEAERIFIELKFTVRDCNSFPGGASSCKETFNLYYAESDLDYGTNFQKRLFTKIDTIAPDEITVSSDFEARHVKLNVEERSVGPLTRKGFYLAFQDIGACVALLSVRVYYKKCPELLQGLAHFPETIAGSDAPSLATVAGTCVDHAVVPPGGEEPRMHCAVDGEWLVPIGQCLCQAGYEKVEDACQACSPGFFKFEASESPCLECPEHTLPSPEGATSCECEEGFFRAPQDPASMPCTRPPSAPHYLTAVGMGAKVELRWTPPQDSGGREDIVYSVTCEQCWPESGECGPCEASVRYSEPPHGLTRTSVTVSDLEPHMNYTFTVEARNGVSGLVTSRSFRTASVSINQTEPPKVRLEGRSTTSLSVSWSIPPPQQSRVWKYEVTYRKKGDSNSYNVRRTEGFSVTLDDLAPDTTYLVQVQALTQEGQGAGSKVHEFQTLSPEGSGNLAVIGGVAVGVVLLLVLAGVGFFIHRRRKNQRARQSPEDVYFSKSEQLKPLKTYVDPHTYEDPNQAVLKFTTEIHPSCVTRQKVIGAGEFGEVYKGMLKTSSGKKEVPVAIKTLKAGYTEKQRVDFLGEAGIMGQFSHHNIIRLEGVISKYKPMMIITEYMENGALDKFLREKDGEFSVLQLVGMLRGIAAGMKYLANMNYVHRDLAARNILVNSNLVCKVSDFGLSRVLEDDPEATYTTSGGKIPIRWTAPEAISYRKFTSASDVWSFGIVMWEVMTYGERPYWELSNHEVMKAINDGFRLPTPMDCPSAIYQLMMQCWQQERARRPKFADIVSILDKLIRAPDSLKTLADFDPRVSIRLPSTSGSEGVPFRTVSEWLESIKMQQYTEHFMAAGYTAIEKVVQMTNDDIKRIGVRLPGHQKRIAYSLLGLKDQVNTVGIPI

With `COc1cc2c(Nc3ccc(C)c(O)c3)c(C#N)cnc2cc1OCCN(C)C` [Example 82, 7-(2-Dimethylamino-ethoxy)-4-(3-hydroxy-4-methylphenylamino)-6-methoxy-quinoline-3-carbonitrile], the IC50 in assay [1] was 5.5 µM; in assay [2], 51 µM; in assay [3] it was 7.64 µM.
Turning to `COc1cc2c(Nc3cc(O)c(Cl)cc3F)c(C#N)cnc2cc1OCCCN(C)C` [Example 84, 4-(4-Chloro-2-fluoro-5-hydroxy-phenylamino)-7-(3-dimethylaminopropoxy)-6-methoxy-quinoline-3-carbonitrile], the concentration for half-maximal inhibition (IC50) was less than 1 µM in assay [1], 0.449 µM in assay [2] and 0.674 µM in assay [3].
As to `CCOc1cc2ncc(C#N)c(Nc3cccc(Br)c3)c2cc1OC` [Example 176, 4-[(3-Bromophenyl)amino]-7-ethoxy-6-methoxy-3-quinolinecarbonitrile], the figures for the IC50 in assay [1], in assay [2] and in assay [3] were greater than 100 µM, 0.01 µM and 7.53 µM, respectively.
Take `CCOc1cc2ncc(C#N)c(Nc3ccc(C)c(O)c3)c2cc1OC` [Example 177, 7-Ethoxy-4-[(3-hydroxy-4-methylphenyl)amino]-6-methoxy-3-quinolinecarbonitrile]: the IC50 in assay [1] was 40 µM; in assay [2], 0.0057 µM; in assay [3], 0.143 µM.
`COc1cc2c(Nc3cccc(Br)c3)c(C#N)cnc2c(OC)c1OC` [Example 241, 4-(3-Bromo-phenylamino)-6,7,8-trimethoxy-quinoline-3-carbonitrile]: the IC50 is greater than 100 µM in assay [1], 7.24 µM in assay [2] and greater than 72.4 µM in assay [3].
For `COc1cc2c(Nc3cc(O)c(Cl)cc3F)c(C#N)cnc2c(OC)c1OC` [Example 244, 4-(4-Chloro-2-fluoro-5-hydroxy-phenylamino)-6,7,8-trimethoxy-quinoline-3-carbonitrile], in that order: greater than 100 µM, 24.8 µM and greater than 74.3 µM.
For `COc1cc2ncc(C#N)c(Nc3c(C)cccc3O)c2cc1OC` [Example 246, 4-(2-Hydroxy-6-methyl-phenylamino)-6,7-dimethoxy-quinoline-3-carbonitrile] the same measures were 35 µM, 0.006 µM and greater than 29.8 µM.
For `COc1ccc2c(Nc3ccc(C)c(O)c3)c(C#N)cnc2c1` [Example 281, 4-(3-hydroxy-4-methyl-phenylamino)-7-methoxy-quinoline-3-carbonitrile] the same measures were 2.5 µM, 0.0033 µM and 9.83 µM.
Turning to `COc1ccc2c(Nc3cc(O)c(Cl)cc3F)c(C#N)cnc2c1` [Example 282, 4-(4-Chloro-2-fluoro-5-hydroxy-phenylamino)-7-methoxy-quinoline-3-carbonitrile], the results for the IC50 in assay [1], in assay [2] and in assay [3] were greater than 100 µM, 0.0029 µM and 5.82 µM, respectively.
On to `COc1cc2ncc(C#N)c(Nc3ccc(O)cc3C)c2cc1OC` [Example 292, 4-(4-Hydroxy-2-methyl-phenylamino)-6,7-dimethoxy-quinoline-3-carbonitrile], for which the IC50 in assay [1] was greater than 100 µM; in assay [2], 0.0018 µM; in assay [3] it was 29.8 µM.
For `COc1cc2ncc(C#N)c(Nc3cccc(SC)c3)c2cc1OC` [Example 294, 6,7-Dimethoxy-4-(3-methylsulfanyl-phenylamino)-quinoline-3-carbonitrile] the same measures were 9 µM, 0.002 µM and 17.1 µM.
Turning to `COc1cc2ncc(C#N)c(Nc3cc(O)c(Cl)cc3F)c2cc1OC` [Example 319, 4-(4-Chloro-2-fluoro-5-hydroxy-phenylamino)-6,7-dimethoxy-quinoline-3-carbonitrile], the IC50 in assay [1] is less than 1 µM; in assay [2] it was 0.001 µM; in assay [3], 1.34 µM.

The values are drawn from EP0973746B1, “SUBSTITUTED 3-CYANO QUINOLINES” (Wyeth Holdings Corporation, priority 1997, dated 1998).
